Reference: PMC9927415, “Tyrosine Kinase Inhibitors Display Potent Activity against Cryptosporidium parvum” (Microbiology Spectrum, 2022)

Legend:
panel of 203 kinases = experiment: KINOMEscan competitive binding, whole panel; parameters: species or system human; conditions: 10 μM; for number of other kinases strongly bound (≥99%): not including the CDKs and Aurora kinase A
Summary of the method: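 Kinases were expressed as T7 bacteriophage fusions, and test compounds competed with immobilized ATP-site probe ligands for binding. Kinase remaining bound to the solid-support probe was quantified, and values are given as percentage inhibition.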

JAK kinase domains = experiment: KINOMEscan competitive binding; parameters: species or system human; conditions: kinome profiling, 10 μM
Source text: The kinases were expressed as fusions to T7 bacteriophage. This is a sensitive, competitive binding assay where test compounds were used to displace immobilized ATP-site binding probe ligands from kinases of interest. The amount of kinase that remained bound to the immobilized probe ligands on the solid support was quantified. Percentage inhibition data were was plotted on kinome trees using the web-based tool KinMap (http://www.kinhub.org/kinmap) ([60]).

JAK3 = target: JAK3; parameters: method as in earlier work; conditions: previous study; read-out: Ki against JAK3; cited from earlier work
ROCK1 = target: ROCK1; parameters: method as in earlier work; conditions: previous study; read-out: Ki against ROCK1; cited from earlier work

CN1CCN(c2ccc(Nc3nccc(-c4cnn5ncccc45)n3)cc2C#N)CC1 [Compound 1]
number of other kinases strongly bound (≥99%) (panel of 203 kinases): 50

COc1ccc(Nc2nccc(-c3cnn4ncccc34)n2)cc1 [Compound 2]
number of other kinases strongly bound (≥99%) (panel of 203 kinases): 28

COc1cc(Nc2nccc(-c3sc(N)nc3-c3cccc(NC(=O)c4c(F)cccc4F)c3)n2)cc(OC)c1OC [Compound 7]
number of kinases with >99% inhibition (panel of 203 kinases): 48

c1ccc(COc2cccc(-c3ccnc4[nH]ccc34)c2)cc1 [Compound 9]
binding to JAK kinase domains, in words (JAK kinase domains): little binding | Ki (JAK3): < 500 nM | Ki (ROCK1): < 500 nM
